As usually defined, the IC50 is the midpoint of a concentration-inhibition curve.

The target in the test is SARS2 coronavirus 3CL protease (Severe acute respiratory syndrome coronavirus 2 (2019-nCoV) (SARS-CoV-2), UniProt P0DTD1). Kind of test: SARS2 Coronavirus 3CL Protease Assay (FRET). The format is biochemical. The following applies: SARS2 3CLPro FRET assay; 5 nM enzyme, 30 min pre-incubation with compound, 15 uM peptide substrate, 4 h room temperature.

With `CNC(=O)C(=O)[C@H](CCC(C)(F)F)NC(=O)[C@@H]1[C@H]2CC(C)(C)O[C@H]2CN1C(=O)[C@@H](NC(=O)OC)C(C)(C)C` [Example 86, methyl ((S)-1-((3aR,4S,6aR)-4-(((S)-6,6-difluoro-1-(methylamino)-1,2-dioxoheptan-3-yl)carbamoyl)-2,2-dimethylhexahydro-5H-furo[2,3-c]pyrrol-5-yl)-3,3-dimethyl-1-oxobutan-2-yl)carbamate], the IC50 was found to be 20 nM.
With `CNC(=O)C(=O)[C@H](CCC(C)(F)F)NC(=O)[C@@H]1[C@H]2CCC[C@H]2CN1C(=O)[C@H](CC(F)(F)F)NC(=O)OC` [Example 87, methyl ((S)-1-((1S,3aR,6aS)-1-(((S)-6,6-difluoro-1-(methylamino)-1,2-dioxoheptan-3-yl)carbamoyl)hexahydrocyclopenta[c]pyrrol-2(1H)-yl)-4,4,4-trifluoro-1-oxobutan-2-yl)carbamate] the figure was 7 nM.
In the case of `CNC(=O)C(=O)[C@H](CCC(C)(F)F)NC(=O)[C@@H]1[C@H]2CCC[C@H]2CN1C(=O)C(NC(=O)OC)C1(C(F)(F)F)CC1` (stereo partly drawn) [Example 88, methyl (2-((1S,3aR,6aS)-1-(((S)-6,6-difluoro-1-(methylamino)-1,2-dioxoheptan-3-yl)carbamoyl)hexahydrocyclopenta[c]pyrrol-2(1H)-yl)-2-oxo-1-(1-(trifluoromethyl)cyclopropy 1)ethyl)carbamate], the IC50 worked out at 21 nM.
The figure for `CNC(=O)C(=O)[C@H](CCC(C)(F)F)NC(=O)[C@@H]1[C@@H]2CC[C@@H](C2)CN1C(=O)[C@@H](NC(=O)OC)C(C)(C)C` [Example 89, methyl ((S)-1-((1R,2S,5S)-2-(((S)-6,6-difluoro-1-(methylamino)-1,2-dioxoheptan-3-yl)carbamoyl)-3-azabicyclo[3.2.1]octan-3-yl)-3,3-dimethyl-1-oxobutan-2-yl)carbamate] is 13 nM; for `CNC(=O)C(=O)[C@H](CCC(C)(F)F)NC(=O)[C@@H]1CC(F)(F)[C@@H](C)CN1C(=O)[C@@H](NC(=O)OC)C(C)(C)C` [Example 91, methyl ((S)-1-((2S,5S)-2-(((S)-6,6-difluoro-1-(methylamino)-1,2-dioxoheptan-3-yl)carbamoyl)-4,4-difluoro-5-methylpiperidin-1-yl)-3,3-dimethyl-1-oxobutan-2-yl)carbamate] it is 19 nM; for `CNC(=O)C(=O)[C@H](CCC(C)(F)F)NC(=O)[C@@H]1[C@@H]2[C@H](CN1C(=O)[C@@H](NC(=O)OC)C(C)(C)C)CC2(F)F` [Example 92, methyl ((S)-1-((1S,2S,5R)-2-(((S)-6,6-difluoro-1-(methylamino)-1,2-dioxoheptan-3-yl)carbamoyl)-7,7-difluoro-3-azabicyclo[3.2.0]heptan-3-yl)-3,3-dimethyl-1-oxobutan-2-yl)carbamate] it is 29 nM.
The figure for `COC(=O)N[C@H](C(=O)N1CC[C@]2(C[C@H]1C(=O)N[C@@H](CCC(C)(F)F)C(=O)C(=O)NC1CC1)CC2(F)F)C(C)(C)C` [Example 94, methyl ((S)-1-((3S,5S)-5-(((S)-1-(cyclopropylamino)-6,6-difluoro-1,2-dioxoheptan-3-yl)carbamoyl)-1,1-difluoro-6-azaspiro[2.5]octan-6-yl)-3,3-dimethyl-1-oxobutan-2-yl)carbamate] is 9 nM; for `COC(=O)N[C@H](C(=O)N1CC[C@@H](C)C[C@H]1C(=O)N[C@@H](CCC(C)(F)F)C(=O)C(=O)NC1CC1)C(C)(C)C` [Example 96, methyl ((S)-1-((2S,4R)-2-(((S)-1-(cyclopropylamino)-6,6-difluoro-1,2-dioxoheptan-3-yl)carbamoyl)-4-methylpiperidin-1-yl)-3,3-dimethyl-1-oxobutan-2-yl)carbamate] it is 15 nM; for `CCNC(=O)C(=O)[C@H](CCC(C)(F)F)NC(=O)[C@@H]1[C@H]2CCC[C@H]2CN1C(=O)[C@@H](NC(=O)OC)C(C)(C)C` [Example 101, methyl ((S)-1-((1S,3aR,6aS)-1-(((S)-1-(ethylamino)-6,6-difluoro-1,2-dioxoheptan-3-yl)carbamoyl)hexahydrocyclopenta[c]pyrrol-2(1H)-yl)-3,3-dimethyl-1-oxobutan-2-yl)carbamate] it is 22 nM.
The figure for `COCCNC(=O)C(=O)[C@H](CCC(C)(F)F)NC(=O)[C@@H]1[C@H]2CCC[C@H]2CN1C(=O)[C@@H](NC(=O)OC)C(C)(C)C` [Example 102, methyl ((S)-1-((1S,3aR,6aS)-1-(((S)-6,6-difluoro-1-((2-methoxyethyl)amino)-1,2-dioxoheptan-3-yl)carbamoyl)hexahydrocyclopenta[c]pyrrol-2(1H)-yl)-3,3-dimethyl-1-oxobutan-2-yl)carbamate] is 61 nM.
Consider `COC(=O)N[C@H](C(=O)N1CC(F)(F)CC[C@H]1C(=O)N[C@@H](CCC(C)(F)F)C(=O)C(=O)NC1CC1)C(C)(C)C` [Example 104, methyl ((S)-1-((S)-2-(((S)-1-(cyclopropylamino)-6,6-difluoro-1,2-dioxoheptan-3-yl)carbamoyl)-5,5-difluoropiperidin-1-yl)-3,3-dimethyl-1-oxobutan-2-yl)carbamate], for which the IC50 amounted to 740 nM.
With `COC(=O)N[C@H](C(=O)N1C[C@H]2[C@@H]([C@H]1C(=O)N[C@@H](CCC(C)(F)F)C(=O)C(=O)NC1CC1)C2(F)F)C(C)(C)C` [Example 111, methyl ((S)-1-((1S,2S,5R)-2-(((S)-1-(cyclopropylamino)-6,6-difluoro-1,2-dioxoheptan-3-yl)carbamoyl)-6,6-difluoro-3-azabicyclo[3.1.0]hexan-3-yl)-3,3-dimethyl-1-oxobutan-2-yl)carbamate], the IC50 was found to be 88 nM.
Regarding `COC(=O)N[C@H](C(=O)N1C[C@H](OC(F)F)C[C@H]1C(=O)N[C@@H](CCC(C)(F)F)C(=O)C(=O)NC1CC1)C(C)(C)C` [Example 113, methyl ((S)-1-((2S,4R)-2-(((S)-1-(cyclopropylamino)-6,6-difluoro-1,2-dioxoheptan-3-yl)carbamoyl)-4-(difluoromethoxy)pyrrolidin-1-yl)-3,3-dimethyl-1-oxobutan-2-yl)carbamate], the IC50 came out at 46 nM.
As to `CNC(=O)C(=O)[C@H](CCC(C)(F)F)NC(=O)[C@@H]1[C@H]2CCC[C@H]2CN1C(=O)[C@@H](NC(=O)OC)C12CC(C(F)(F)F)(C1)C2` [Example 114, methyl ((S)-2-((1S,3aR,6aS)-1-(((S)-6,6-difluoro-1-(methylamino)-1,2-dioxoheptan-3-yl)carbamoyl)hexahydrocyclopenta[c]pyrrol-2(1H)-yl)-2-oxo-1-(3-(trifluoromethyl)bicyclo[1.1 1]pentan-1-yl)ethyl)carbamate], the IC50 was 27 nM.
The figure for `CNC(=O)C(=O)[C@H](CCC(C)(F)F)NC(=O)[C@@H]1[C@H]2CCC[C@H]2CN1C(=O)[C@@H](NC(=O)OC)C(C)(C)O` [Example 117, methyl ((S)-1-((1S,3aR,6aS)-1-(((S)-6,6-difluoro-1-(methylamino)-1,2-dioxoheptan-3-yl)carbamoyl)hexahydrocyclopenta[c]pyrrol-2(1H)-yl)-3-hydroxy-3-methyl-1-oxobutan-2-yl)carbamate] is 14 nM; for `COC(=O)N[C@H](C(=O)N1C[C@@H]2CCC[C@@H]2[C@H]1C(=O)N[C@@H](CCC(C)(F)F)C(=O)C(=O)NC1CC1)[C@@H](C)OC` [Example 118, methyl ((2S,3R)-1-((1S,3aR,6aS)-1-(((S)-1-(cyclopropylamino)-6,6-difluoro-1,2-dioxoheptan-3-yl)carbamoyl)hexahydrocyclopenta[c]pyrrol-2(1H)-yl)-3-methoxy-1-oxobutan-2-yl)carbamate] it is 14 nM.
The figure for `COC(=O)N[C@H](C(=O)N1C[C@@H]2CCC[C@@H]2[C@H]1C(=O)N[C@@H](CCC(C)(F)F)C(=O)C(=O)NCC(F)(F)F)C(C)(C)C` [Example 119, methyl ((S)-1-((1S,3aR,6aS)-1-(((S)-6,6-difluoro-1,2-dioxo-1-((2,2,2-trifluoroethyl)amino)heptan-3-yl)carbamoyl)hexahydrocyclopenta[c]pyrrol-2(1H)-yl)-3,3-dimethyl-1-oxobutan-2-yl)carbamate] is 77 nM; for `CCOC(=O)N[C@H](C(=O)N1C[C@@H]2CCC[C@@H]2[C@H]1C(=O)N[C@@H](CCC(C)(F)F)C(=O)C(=O)NC)C(C)(C)C` [Example 120, ethyl ((S)-1-((1S,3aR,6aS)-1-(((S)-6,6-difluoro-1-(methylamino)-1,2-dioxoheptan-3-yl)carbamoyl)hexahydrocyclopenta[c]pyrrol-2(1H)-yl)-3,3-dimethyl-1-oxobutan-2-yl)carbamate] it is 21 nM; for `CNC(=O)C(=O)[C@H](CCC(C)(F)F)NC(=O)[C@@H]1[C@H]2CCC[C@H]2CN1C(=O)[C@@H](NC(=O)OCC(F)F)C(C)(C)C` [Example 121, 2,2-difluoroethyl ((S)-1-((1S,3aR,6aS)-1-(((S)-6,6-difluoro-1-(methylamino)-1,2-dioxoheptan-3-yl)carbamoyl)hexahydrocyclopenta[c]pyrrol-2(1H)-yl)-3,3-dimethyl-1-oxobutan-2-yl)carbamate] it is 15 nM.
With `CNC(=O)C(=O)[C@H](CCC(C)(F)F)NC(=O)[C@@H]1[C@H]2CCC[C@H]2CN1C(=O)[C@@H](NC(=O)OCC(F)(F)F)C(C)(C)C` [Example 122, 2,2,2-trifluoroethyl ((S)-1-((1S,3aR,6aS)-1-(((S)-6,6-difluoro-1-(methylamino)-1,2-dioxoheptan-3-yl)carbamoyl)hexahydrocyclopenta[c]pyrrol-2(1H)-yl)-3,3-dimethyl-1-oxobutan-2-yl)carbamate] the figure was 34 nM; with `COC(=O)N[C@@H](Cc1noc(C)n1)C(=O)N1C[C@H]2[C@@H]([C@H]1C(=O)N[C@@H](CCC(C)(F)F)C(=O)C(=O)NC1CC1)C2(C)C` [Example 123, methyl ((S)-1-((1R,2S,5S)-2-(((S)-1-(cyclopropylamino)-6,6-difluoro-1,2-dioxoheptan-3-yl)carbamoyl)-6,6-dimethyl-3-azabicyclo[3.1.0]hexan-3-yl)-3-(5-methyl-1,2,4-oxadiazol-3-yl)-1-oxopropan-2-yl)carbamate], 29 nM.

The values are drawn from patent US20250223259A1, “PROTEASE INHIBITORS FOR TREATING OR PREVENTING CORONAVIRUS INFECTION” (Merck Sharp & Dohme LLC, priority 2022, published 2025).
